The results in this text go back to publication PMC10479830, “Nucleoside analogs NM107 and AT-527 are antiviral against rubella virus” (PNAS Nexus, 2023).

pEC50, pIC50: −log10 of the molar value. Read-outs that look alike come from different tables or passages of the source.

The test system of data set [1] is rubella virus. Put plainly: rubella virus infection of HBMEC, dose-response. The data set is classed as cell-based. As to conditions: dose-response. On the procedure: Rubella virus can infect diverse tissues in vivo, and viruses can show tissue-specific dependencies on host factors. […] First, we developed assays in human brain microvascular endothelial cells (HBMECs) as a model for endothelial cells. We again used nanchangmycin to optimize the assay (Fig. 3A and B).
(§1) A549 cells were plated in 384 well plates at 3,000 cells/well, HBMEC were plated at 7,000 cells/well, or Jeg-3 cells were plated at 3,000 cells/well in 20 μL growth media. The next day, 50 nL of drugs were added to assay wells, yielding a final concentration of 1 µM. The positive control nanchangmycin (n = 32) and the negative control DMSO (n = 32) were spotted on each assay plate. One hour later, cells were infected with rubella virus at a multiplicity of infection (MOI) = 0.234 for A549s, MOI = 0.1 for HBMEC, MOI = 0.05 for Jeg-3 cells). […] HBMECs were spin-infected by centrifuging at 1,250×g for 1 h at 25°C. Cells were fixed at 48 h post infection (hpi) in 4% formaldehyde/phosphate-buffered saline (PBS) for 15 min at room temperature and then washed twice with PBS. Cells were blocked with blocking buffer [2% bovine serum albumin in PBS with 0.1% Triton X-100 (PBST)]) for 1 h and incubated with primary antibody (mouse antirubella E1, CDC, 1 μg/mL) overnight at 4°C. Cells were washed three times with PBST and incubated in secondary (1:1000 antimouse Alexa Fluor 488 and 5 μg/mL Hoechst 33342) for 1 h at room temperature. Cells were washed three times with PBST and imaged using ImageXpress Micro (Molecular Devices). Cells were imaged with a 10× objective capturing four sites per well. The total number of cells and the percentage of infected cells were measured using the MetaXpress 5.3.3 cell scoring module. The aggregated percent infection of the DMSO and 2 µM nanchangmycin control wells on each assay plate were used to calculate Z′-factors. Sample well infection was normalized to aggregated DMSO plate control wells and expressed as percentage of control (POC = [%Infection sample/Average %Infection DMSO] × 100) and Z-score (Z = [%Infection sample − Average %Infection DMSO]/Standard Deviation %Infection DMSO) in Spotfire (PerkinElmer). Candidate hits were selected as compounds with POC <40% and viability >60%, compared with vehicle control.
(§2) Drugs were purchased as powders from Selleckchem, MedchemExpress, and MedKoo and suspended in DMSO. Drugs were arrayed in 8-pt dose–response in 384 well plates. Infections were performed using the screening conditions. DMSO (n = 32) and 2 µM nanchangmycin (n = 16) were included on each validation plate as controls for normalization. Infection at each drug concentration was normalized to aggregated DMSO plate control wells and expressed as POC (POC = %Infection sample/Average %Infection DMSO cont). A nonlinear regression curve fit analysis (GraphPad Prism 8) was performed on POC infection and cell viability using log10 transformed concentration values to calculate IC50 values for infection and CC50 values for cell viability. SI was calculated as a ratio of the drug's CC50 and IC50 values (SI = CC50/IC50).

In the next data set the test system is rubella RA27/3 virus. Description: microbe, parasite or virus in culture. The data set is classed as cell-based. As to conditions: for inhibition at 1 µM: Rubella virus, A549, read-out: inhibition of infection in primary screen; for activity against rubella in A549 cells: dose-response; for inhibition of infection in primary screen: 1 µM, compared with vehicle alone.
Excerpt: (§3) We developed a high-throughput, high-content, cell-based assay to monitor rubella virus infection of the human respiratory cell line A549, as the respiratory tract is infected in humans. […] We infected A549 cells with the rubella virus vaccine strain (RA27/3) and monitored infection using an antibody to the viral glycoprotein E1 (Fig. 1A) ([13]). […] To evaluate the utility of nanchangmycin as a positive control for our assay development, we performed a dose–response assay for nanchangmycin using automated fluorescent microscopy to quantify the cell number as a surrogate for cell viability and percent infection (Fig. 1A).
as §1, with “plate.” for “plate. One hour later, cells were infected with rubella virus at a multiplicity of infection (MOI) = 0.234 for A549s, MOI = 0.1 for HBMEC, MOI = 0.05 for Jeg-3 cells).”, “Cells were washed three times with PBST and incubated in secondary (1:1000 antimouse Alexa Fluor 488 and 5 μg/mL Hoechst 33342) for 1 h at room temperature.” left out
as §2

In data set [2] the test system is A549 cells. Description: ATPLite assay of cytotoxicity in A549 cells. The data set is classed as cell-based, human. The text has this: To determine whether LY2090314 is targeting GSK-3 or potentially a different target, we tested two additional GSK-3 inhibitors, AZD2858 and CHIR99021. […] We also validated the PIKfyve inhibitor APY0201, known to block entry of viruses that use endosomal entry routes and found robust activity (SI = 102). […] All three of the NAMPT inhibitors identified in the screen (STF-118804, GMX1778, and daporinad) validated with high potency (SI > 500).
In general terms: In ATP-based viability assays light output follows the ATP content of the culture.

The test system of data set [3] is rubella virus. Description: rubella virus infection of Jeg-3 cells, dose-response. It counts as cell-based. The conditions noted are these: Jeg-3 cells, dose-response. How it is done:
Since rubella can cause congenital infections, we next developed assays in the human trophoblast cell line Jeg-3.
as §1, §2

Data set [4] is described as follows: cell number (cell viability) in A549 cells, Hoechst 33342, automated microscopy. The data set is classed as cell-based, human. As to conditions: human, A549 cells, 1 µM, compared with vehicle alone, read-out: cell viability in primary screen.
Excerpt: as §3, §1, §2

Data set [5] deals with A549 cells. The description is as above. It counts as cell-based, human. As to conditions: for cell viability in primary screen: 1 µM.
Excerpt: as §3, §1, §2

In the case of `N#CN=C(NCCCCCCOc1ccc(Cl)cc1)Nc1ccncc1` [GMX1778], the “activity against rubella in HBMEC” value in the data set on rubella virus [1] is “showed activity”. Also, in the data set with rubella RA27/3 virus (A549 cells), the “selectivity index (SI = CC50/IC50)” value is above 500. In the data set on rubella RA27/3 virus, the inhibition at 1 µM is above 60%. Besides, the pIC50 in the data set with A549 cells [2] (Homo sapiens, A549, read-out: IC50 of ATP content depletion (ATPLite)) was 7.70. Also, the “activity against rubella in Jeg-3 cells” value in the data set with rubella virus [3] is reported as “active”. Also, the viability at 48 h, 1 µM in data set [4] was above 60%.

Regarding `C/C=C/C[C@@H](C)[C@@H](O)[C@H]1C(=O)N[C@@H](CC)C(=O)N(C)[C@H](C)C(=O)N(CC)[C@@H](C(C)C)C(=O)N[C@@H](C(C)C)C(=O)N(C)[C@@H](CC(C)C)C(=O)N[C@@H](C)C(=O)N[C@H](C)C(=O)N(C)[C@@H](CC(C)C)C(=O)N(C)[C@@H](CC(C)C)C(=O)N(C)[C@@H](C(C)C)C(=O)N1C` [alisporivir], in the data set with rubella RA27/3 virus (A549 cells), the “activity against rubella in A549 cells” value is “little activity”.

On to `CCc1c(O)cc(O)c(C(=O)c2ccc(OCCN3CCOCC3)c(OC)c2)c1CC(=O)N(CCOC)CCOC.Cl` [KW-2478], for which, in the data set with rubella RA27/3 virus (A549 cells), the “inhibition of infection in primary screen” value (“inhibition of infection” below) is reported as above 60%. For the same compound, the “cell viability in primary screen” value in the data set with A549 cells [5] is above 60%.

Take `Cc1c[nH]c(-c2cnc(NCCNc3ccc(C#N)cn3)nc2-c2ccc(Cl)cc2Cl)n1` [CHIR99021]: in the data set with rubella RA27/3 virus (A549 cells), the “activity against rubella in A549 cells” value is given as “little activity”.

On to `O=C(/C=C/c1cccnc1)NCCCCC1CCN(C(=O)c2ccccc2)CC1` [daporinad], for which the “activity against rubella in HBMEC” value in the data set with rubella virus [1] is “showed activity”. In addition, the “selectivity index (SI = CC50/IC50)” value with rubella RA27/3 virus (A549 cells) is above 500. Further, the inhibition at 1 µM in the data set on rubella RA27/3 virus was above 60%. Further, in the data set with A549 cells [2] (Homo sapiens, A549 cells, read-out: IC50 of ATP content depletion (ATPLite)), the pIC50 was 8.00. For the same compound, the “activity against rubella in Jeg-3 cells” value in the data set with rubella virus [3] is “active”. In addition, the viability at 48 h, 1 µM in data set [4] (A549 cells (infected with rubella virus RA27/3)) is above 60%.

As to `CC1(C)CCC(c2ccc(Cl)cc2)=C(CN2CCN(c3ccc(C(=O)NS(=O)(=O)c4ccc(N[C@H](CCN5CCOCC5)CSc5ccccc5)c(S(=O)(=O)C(F)(F)F)c4)cc3)CC2)C1` [navitoclax], the “activity against rubella in A549 cells” value in the data set with rubella RA27/3 virus (A549 cells) was “little activity”. In addition, the “toxicity in A549 cells” value in the data set on A549 cells [5] was “significant toxicities”.

For `CN1CCN(S(=O)(=O)c2ccc(-c3cnc(N)c(C(=O)Nc4cccnc4)n3)cc2)CC1` [AZD2858], in the data set on rubella RA27/3 virus (A549 cells), the “activity against rubella in A549 cells” value was “little activity”.

As for `Cc1ccc(S(=O)(=O)Cc2nc(-c3ccc(C(=O)NCc4cccnc4)cc3)oc2C)cc1` [STF-118804], the “activity against rubella in HBMEC” value with rubella virus [1] is recorded as “showed activity”. In addition, in the data set with rubella RA27/3 virus (A549 cells), the “inhibition of infection” value is given as above 60%. The pIC50 with A549 cells [2] (A549 cells, read-out: IC50 of ATP content depletion (ATPLite)) was 8.00. Further, the “activity against rubella in Jeg-3 cells” value with rubella virus [3] is listed as “active”. Also, the “cell viability in primary screen” value in the data set with A549 cells [5] is given as above 60%.

In the case of `Cn1cc(C2=C(c3cccc(N)c3)C(=O)NC2=O)c2ccccc21` [CP21R7], in the data set with rubella RA27/3 virus (A549 cells), the “inhibition of infection” value is above 60%. For the same compound, in the data set on A549 cells [5], the “cell viability in primary screen” value is on record as above 60%.

As to `COC1=CC(c2cc3ccccc3[nH]2)=N/C1=C\c1[nH]c(C)cc1C` [obatoclax], in the data set with rubella virus [1], the “activity against rubella in HBMEC” value is listed as “showed activity”. Moreover, the “activity against rubella in A549 cells” value in the data set on rubella RA27/3 virus (A549 cells) is on record as “little activity”. Further, the “activity against rubella in Jeg-3 cells” value in the data set with rubella virus [3] is recorded as “active”. Moreover, the “toxicity in A549 cells” value with A549 cells [5] is listed as “significant toxicities”.

As to `N#Cc1c(Oc2ccc(F)c(NC(=O)Cc3cccc(C(F)(F)F)c3)c2)ccc2nc(NC(=O)C3CC3)sc12` [TAK-632], the “activity against rubella in A549 cells” value with rubella RA27/3 virus (A549 cells) is “little activity”.

In the case of `CN1CCC(NC(=O)c2cc(-c3c(O)cc(O)cc3Oc3ccc([N+](=O)[O-])cc3)on2)CC1` [NMS-E973], in the data set on rubella RA27/3 virus (A549 cells), the “inhibition of infection” value is reported as above 60%.

For `CO[C@H]1CC[C@@H](O[C@H]2C[C@H]([C@]3(C)CC[C@]4(C[C@H](O)[C@@H](C)[C@@H]([C@@H](C)/C=C(\C)C(=O)[C@H](C)C[C@H](C)C(=O)O)O4)O3)O[C@]3(O[C@@H]([C@H]4O[C@@](O)(CO)[C@H](C)C[C@@H]4C)C[C@@H]3C)[C@@H]2C)O[C@@H]1C` [nanchangmycin], in the data set on rubella RA27/3 virus (A549 cells, 48 hpi, read-out: half-maximal inhibitory concentration (IC50), rubella virus infection), the pIC50 is 7.52. Also, in the data set with rubella RA27/3 virus (A549 cells, MOI = 0.2, 48 hpi, read-out: EC50 (printed in Fig. 1B)), the pEC50 is 7.52. Further, the “activity against rubella in Jeg-3 cells” value in the data set with rubella virus [3] was “active”. Moreover, in the data set with A549 cells [5] (A549 cells, cell number, read-out: half-maximal cytotoxicity concentration (CC50)), the CC50 was found to be 3000 nM.

With `Cc1cccc(/C=N/Nc2cc(N3CCOCC3)nc(OCCc3ccccn3)n2)c1` [apilimod], the “activity against rubella in HBMEC” value with rubella virus [1] was “showed activity”. The “selectivity index (SI = CC50/IC50)” value with rubella RA27/3 virus (A549 cells) is given as above 8. In addition, the “activity against rubella in Jeg-3 cells” value in the data set with rubella virus [3] is listed as “active”.

For the compound `Cc1c(-c2ccc(N3CCc4cccc(C(=O)Nc5nc6ccccc6s5)c4C3)nc2C(=O)O)cnn1CC12CC3CC(CC(C3)C1)C2` [A-1331852], the “activity against rubella in A549 cells” value in the data set with rubella RA27/3 virus (A549 cells) was “little activity”. For the same compound, the “toxicity in A549 cells” value in the data set with A549 cells [5] is given as “significant toxicities”.

Regarding `COc1c(C)c2c(c(O)c1C/C=C(\C)CCC(=O)O)C(=O)OC2` [mycophenolic acid], the “activity against rubella in HBMEC” value with rubella virus [1] is reported as “showed activity”. Besides, in the data set on rubella RA27/3 virus (A549 cells), the “selectivity index (SI = CC50/IC50)” value was determined as 6. In addition, in the data set with rubella virus [3], the “activity against rubella in Jeg-3 cells” value was “active”. The “toxicity in A549 cells” value in the data set with A549 cells [5] (human, 48 h) was “higher toxicity in A549 cells than in Jeg-3 cells”.

Turning to `Cc1cccc(/C=N/Nc2cc(N3CCOCC3)n3nc(-c4ccncc4)cc3n2)c1` [APY0201], the “activity against rubella in HBMEC” value with rubella virus [1] is listed as “showed activity”. Further, in the data set on rubella RA27/3 virus (A549 cells), the “selectivity index (SI = CC50/IC50)” value is reported as 102. The “activity against rubella in Jeg-3 cells” value in the data set with rubella virus [3] is “active”.

The inhibition is the share of the control response that was lost under treatment. One may read the viability as a read-out of living cells in per cent, often relative to untreated cells. One may read the pEC50 as the negative decadic logarithm of the EC50, by convention in mol/L.
